Source: ChEMBL document CHEMBL4649997, “Data for probe TP-472” (2021)

What was measured:
[1] = biological target: Protein polybromo-1 (Homo sapiens) (UniProt Q86U86); conditions: Compound concentration 10.0 uM, Protein concentration 2.0 uM
[2] = biological target: Bromodomain adjacent to zinc finger domain protein 2A (Homo sapiens) (UniProt Q9UIF9); conditions: Compound concentration 10.0 uM, Protein concentration 2.0 uM
[3] = biological target: T1, CREB-binding protein (Homo sapiens, UniProt Q92793); assay: Alphascreen assay. Binding to CREBBPA (domain start/stop: R1081-G1197) by alphascreen assay
[4] = biological target: Bromodomain-containing protein 1 (Homo sapiens) (UniProt O95696); conditions: Compound concentration 10.0 uM, Protein concentration 2.0 uM
[5] = biological target: Protein polybromo-1 (Homo sapiens) (UniProt Q86U86); conditions: Compound concentration 10.0 uM, Protein concentration 2.0 uM; remark: listed apart in the source
[6] = biological target: Histone acetyltransferase KAT2A (Homo sapiens) (UniProt Q92830); conditions: Compound concentration 10.0 uM, Protein concentration 2.0 uM
[7] = biological target: Bromodomain adjacent to zinc finger domain protein 2B (Homo sapiens) (UniProt Q9UIF8); conditions: Compound concentration 10.0 uM, Protein concentration 2.0 uM
[8] = biological target: Bromodomain and WD repeat-containing protein 1 (Homo sapiens) (UniProt Q9NSI6); conditions: Compound concentration 10.0 uM, Protein concentration 2.0 uM
[9] = biological target: Histone-lysine N-methyltransferase 2A (Homo sapiens) (UniProt Q03164); conditions: Compound concentration 10.0 uM, Protein concentration 2.0 uM
[10] = biological target: Bromodomain-containing protein 9 (Homo sapiens) (UniProt Q9H8M2); conditions: Compound concentration 10.0 uM, Protein concentration 2.0 uM
[11] = biological target: Bromodomain-containing protein 2 (Homo sapiens) (UniProt P25440); conditions: Compound concentration 10.0 uM, Protein concentration 2.0 uM
[12] = biological target: Nucleosome-remodeling factor subunit BPTF (Homo sapiens) (UniProt Q12830); conditions: Compound concentration 10.0 uM, Protein concentration 2.0 uM
[13] = biological target: Protein polybromo-1 (Homo sapiens) (UniProt Q86U86); conditions: Compound concentration 10.0 uM, Protein concentration 2.0 uM; remark: listed apart in the source
[14] = biological target: T1, CREB-binding protein; conditions: Compound concentration 10.0 uM, Protein concentration 2.0 uM
[15] = biological target: Bromodomain-containing protein 3 (Homo sapiens) (UniProt Q15059); conditions: Compound concentration 10.0 uM, Protein concentration 2.0 uM
[16] = biological target: Histone acetyltransferase KAT2B (Homo sapiens) (UniProt Q92831); conditions: Compound concentration 10.0 uM, Protein concentration 2.0 uM
[17] = biological target: Transcription initiation factor TFIID subunit 1 (Homo sapiens) (UniProt P21675); conditions: Compound concentration 10.0 uM, Protein concentration 2.0 uM
[18] = biological target: Bromodomain testis-specific protein (Homo sapiens) (UniProt Q58F21); conditions: Compound concentration 10.0 uM, Protein concentration 2.0 uM
[19] = biological target: T2, Chromatin remodeling regulator CECR2 (Homo sapiens, UniProt Q9BXF3); assay: Alphascreen assay. Binding to CECR2A (domain start/stop: P420-D543) by alphascreen assay
Target sequence in this assay (Q9BXF3 whole entry): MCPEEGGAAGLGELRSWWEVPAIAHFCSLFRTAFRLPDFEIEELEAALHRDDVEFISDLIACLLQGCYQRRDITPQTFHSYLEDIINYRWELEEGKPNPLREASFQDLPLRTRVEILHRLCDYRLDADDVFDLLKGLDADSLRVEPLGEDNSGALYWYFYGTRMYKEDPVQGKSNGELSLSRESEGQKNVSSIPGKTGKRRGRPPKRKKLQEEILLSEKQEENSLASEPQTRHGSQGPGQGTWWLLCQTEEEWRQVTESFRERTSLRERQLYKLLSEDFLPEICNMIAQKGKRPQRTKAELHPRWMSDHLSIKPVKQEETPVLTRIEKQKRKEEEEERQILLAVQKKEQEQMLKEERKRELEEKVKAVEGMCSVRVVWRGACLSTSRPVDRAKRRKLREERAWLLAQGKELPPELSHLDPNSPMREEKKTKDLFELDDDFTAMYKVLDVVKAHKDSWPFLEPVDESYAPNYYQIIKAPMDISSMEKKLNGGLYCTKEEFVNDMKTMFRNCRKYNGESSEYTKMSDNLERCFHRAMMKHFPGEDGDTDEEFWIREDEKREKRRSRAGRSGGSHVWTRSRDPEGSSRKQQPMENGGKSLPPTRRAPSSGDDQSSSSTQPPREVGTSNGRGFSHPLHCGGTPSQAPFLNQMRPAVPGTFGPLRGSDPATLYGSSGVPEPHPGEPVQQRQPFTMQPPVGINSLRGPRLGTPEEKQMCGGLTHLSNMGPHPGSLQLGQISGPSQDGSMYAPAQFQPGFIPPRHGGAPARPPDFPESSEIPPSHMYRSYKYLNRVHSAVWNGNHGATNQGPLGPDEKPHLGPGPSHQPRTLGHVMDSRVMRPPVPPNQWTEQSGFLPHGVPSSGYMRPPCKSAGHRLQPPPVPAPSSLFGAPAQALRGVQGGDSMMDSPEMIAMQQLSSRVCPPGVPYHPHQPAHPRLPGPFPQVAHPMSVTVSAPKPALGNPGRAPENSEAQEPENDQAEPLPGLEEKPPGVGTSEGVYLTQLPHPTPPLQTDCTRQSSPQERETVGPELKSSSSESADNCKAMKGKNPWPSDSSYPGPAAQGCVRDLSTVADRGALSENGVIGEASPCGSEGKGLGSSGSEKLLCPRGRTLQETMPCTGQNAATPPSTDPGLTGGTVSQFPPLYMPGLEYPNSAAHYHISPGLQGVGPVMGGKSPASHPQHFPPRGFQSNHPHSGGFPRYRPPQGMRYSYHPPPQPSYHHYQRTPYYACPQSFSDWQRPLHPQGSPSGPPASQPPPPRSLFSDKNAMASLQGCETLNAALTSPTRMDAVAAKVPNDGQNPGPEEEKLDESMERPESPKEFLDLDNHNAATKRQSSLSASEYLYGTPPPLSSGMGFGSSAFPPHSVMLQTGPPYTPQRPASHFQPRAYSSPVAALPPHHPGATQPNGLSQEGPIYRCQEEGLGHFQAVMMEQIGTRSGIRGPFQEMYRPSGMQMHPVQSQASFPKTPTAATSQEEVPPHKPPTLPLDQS

[20] = biological target: Bromodomain-containing protein 3 (Homo sapiens) (UniProt Q15059); conditions: Compound concentration 10.0 uM, Protein concentration 2.0 uM; remark: listed apart in the source
[21] = biological target: Histone acetyltransferase p300 (Homo sapiens) (UniProt Q09472); conditions: Compound concentration 10.0 uM, Protein concentration 2.0 uM
[22] = biological target: Transcription initiation factor TFIID subunit 1 (Homo sapiens) (UniProt P21675); conditions: Compound concentration 10.0 uM, Protein concentration 2.0 uM; remark: listed apart in the source
[23] = biological target: T2, Chromatin remodeling regulator CECR2; assay: Alphascreen assay. Binding to CECR2A (domain start/stop: P420-H538) by alphascreen assay
Target sequence in this assay (Q9BXF3 whole entry): as above

[24] = biological target: Bromodomain-containing protein 7 (Homo sapiens) (UniProt Q9NPI1); conditions: Compound concentration 10.0 uM, Protein concentration 2.0 uM
[25] = biological target: ATPase family AAA domain-containing protein 2 (Homo sapiens) (UniProt Q6PL18); conditions: Compound concentration 10.0 uM, Protein concentration 2.0 uM
[26] = biological target: Bromodomain-containing protein 2 (Homo sapiens) (UniProt P25440); conditions: Compound concentration 10.0 uM, Protein concentration 2.0 uM; remark: listed apart in the source
[27] = biological target: Peregrin (Homo sapiens) (UniProt P55201); conditions: Compound concentration 10.0 uM, Protein concentration 2.0 uM
[28] = biological target: Nuclear body protein SP140-like protein (Homo sapiens) (UniProt Q9H930); conditions: Compound concentration 10.0 uM, Protein concentration 2.0 uM
[29] = biological target: SWI/SNF-related matrix-associated actin-dependent regulator of chromatin subfamily A member 2 (Homo sapiens) (UniProt P51531); conditions: Compound concentration 10.0 uM, Protein concentration 2.0 uM
[30] = biological target: Peregrin (Homo sapiens, UniProt P55201); assay: Alphascreen assay. Binding to BRPF1B (domain start/stop: M626-G740) by alphascreen assay
[31] = biological target: Protein polybromo-1 (Homo sapiens) (UniProt Q86U86); conditions: Compound concentration 10.0 uM, Protein concentration 2.0 uM; remark: listed apart in the source
[32] = biological target: Bromodomain adjacent to zinc finger domain protein 1A (Homo sapiens) (UniProt Q9NRL2); conditions: Compound concentration 10.0 uM, Protein concentration 2.0 uM
[33] = biological target: Transcription initiation factor TFIID subunit 1-like (Homo sapiens) (UniProt Q8IZX4); conditions: Compound concentration 10.0 uM, Protein concentration 2.0 uM
[34] = biological target: Peregrin (Homo sapiens) (UniProt P55201); conditions: Compound concentration 10.0 uM, Protein concentration 2.0 uM; remark: listed apart in the source
[35] = biological target: Tyrosine-protein kinase BAZ1B (Homo sapiens) (UniProt Q9UIG0); conditions: Compound concentration 10.0 uM, Protein concentration 2.0 uM
[36] = biological target: Protein polybromo-1 (Homo sapiens) (UniProt Q86U86); conditions: Compound concentration 10.0 uM, Protein concentration 2.0 uM; remark: listed apart in the source
[37] = biological target: Transcription intermediary factor 1-alpha (Homo sapiens) (UniProt O15164); conditions: Compound concentration 10.0 uM, Protein concentration 2.0 uM
[38] = biological target: Transcription intermediary factor 1-beta (Homo sapiens) (UniProt Q13263); conditions: Compound concentration 10.0 uM, Protein concentration 2.0 uM
[39] = biological target: Bromodomain testis-specific protein (Homo sapiens) (UniProt Q58F21); conditions: Compound concentration 10.0 uM, Protein concentration 2.0 uM; remark: listed apart in the source
[40] = biological target: Bromodomain and WD repeat-containing protein 3 (Homo sapiens) (UniProt Q6RI45); conditions: Compound concentration 10.0 uM, Protein concentration 2.0 uM
[41] = biological target: Nuclear body protein SP140 (Homo sapiens) (UniProt Q13342); conditions: Compound concentration 10.0 uM, Protein concentration 2.0 uM
[42] = biological target: Protein polybromo-1 (Homo sapiens) (UniProt Q86U86); conditions: Compound concentration 10.0 uM, Protein concentration 2.0 uM; remark: listed apart in the source
[43] = biological target: Bromodomain-containing protein 4 (Homo sapiens) (UniProt O60885); conditions: Compound concentration 10.0 uM, Protein concentration 2.0 uM
[44] = biological target: Transcription initiation factor TFIID subunit 1-like (Homo sapiens) (UniProt Q8IZX4); conditions: Compound concentration 10.0 uM, Protein concentration 2.0 uM; remark: listed apart in the source
[45] = biological target: T2, Chromatin remodeling regulator CECR2; conditions: Compound concentration 10.0 uM, Protein concentration 2.0 uM
Target sequence in this assay (Q9BXF3 whole entry, looked up): as the sequence (Q9BXF3 whole entry) above

[46] = biological target: PH-interacting protein (Homo sapiens) (UniProt Q8WWQ0); conditions: Compound concentration 10.0 uM, Protein concentration 2.0 uM
[47] = biological target: Bromodomain and PHD finger-containing protein 3 (Homo sapiens) (UniProt Q9ULD4); conditions: Compound concentration 10.0 uM, Protein concentration 2.0 uM
[48] = biological target: ATPase family AAA domain-containing protein 2B (Homo sapiens) (UniProt Q9ULI0); conditions: Compound concentration 10.0 uM, Protein concentration 2.0 uM
[49] = biological target: SWI/SNF-related matrix-associated actin-dependent regulator of chromatin subfamily A member 4 (Homo sapiens) (UniProt P51532); conditions: Compound concentration 10.0 uM, Protein concentration 2.0 uM
[50] = biological target: Histone-lysine N-methyltransferase ASH1L (Homo sapiens) (UniProt Q9NR48); conditions: Compound concentration 10.0 uM, Protein concentration 2.0 uM

Protein polybromo-1 (Homo sapiens), sequence (Q86U86 whole entry, the tested form may be a part): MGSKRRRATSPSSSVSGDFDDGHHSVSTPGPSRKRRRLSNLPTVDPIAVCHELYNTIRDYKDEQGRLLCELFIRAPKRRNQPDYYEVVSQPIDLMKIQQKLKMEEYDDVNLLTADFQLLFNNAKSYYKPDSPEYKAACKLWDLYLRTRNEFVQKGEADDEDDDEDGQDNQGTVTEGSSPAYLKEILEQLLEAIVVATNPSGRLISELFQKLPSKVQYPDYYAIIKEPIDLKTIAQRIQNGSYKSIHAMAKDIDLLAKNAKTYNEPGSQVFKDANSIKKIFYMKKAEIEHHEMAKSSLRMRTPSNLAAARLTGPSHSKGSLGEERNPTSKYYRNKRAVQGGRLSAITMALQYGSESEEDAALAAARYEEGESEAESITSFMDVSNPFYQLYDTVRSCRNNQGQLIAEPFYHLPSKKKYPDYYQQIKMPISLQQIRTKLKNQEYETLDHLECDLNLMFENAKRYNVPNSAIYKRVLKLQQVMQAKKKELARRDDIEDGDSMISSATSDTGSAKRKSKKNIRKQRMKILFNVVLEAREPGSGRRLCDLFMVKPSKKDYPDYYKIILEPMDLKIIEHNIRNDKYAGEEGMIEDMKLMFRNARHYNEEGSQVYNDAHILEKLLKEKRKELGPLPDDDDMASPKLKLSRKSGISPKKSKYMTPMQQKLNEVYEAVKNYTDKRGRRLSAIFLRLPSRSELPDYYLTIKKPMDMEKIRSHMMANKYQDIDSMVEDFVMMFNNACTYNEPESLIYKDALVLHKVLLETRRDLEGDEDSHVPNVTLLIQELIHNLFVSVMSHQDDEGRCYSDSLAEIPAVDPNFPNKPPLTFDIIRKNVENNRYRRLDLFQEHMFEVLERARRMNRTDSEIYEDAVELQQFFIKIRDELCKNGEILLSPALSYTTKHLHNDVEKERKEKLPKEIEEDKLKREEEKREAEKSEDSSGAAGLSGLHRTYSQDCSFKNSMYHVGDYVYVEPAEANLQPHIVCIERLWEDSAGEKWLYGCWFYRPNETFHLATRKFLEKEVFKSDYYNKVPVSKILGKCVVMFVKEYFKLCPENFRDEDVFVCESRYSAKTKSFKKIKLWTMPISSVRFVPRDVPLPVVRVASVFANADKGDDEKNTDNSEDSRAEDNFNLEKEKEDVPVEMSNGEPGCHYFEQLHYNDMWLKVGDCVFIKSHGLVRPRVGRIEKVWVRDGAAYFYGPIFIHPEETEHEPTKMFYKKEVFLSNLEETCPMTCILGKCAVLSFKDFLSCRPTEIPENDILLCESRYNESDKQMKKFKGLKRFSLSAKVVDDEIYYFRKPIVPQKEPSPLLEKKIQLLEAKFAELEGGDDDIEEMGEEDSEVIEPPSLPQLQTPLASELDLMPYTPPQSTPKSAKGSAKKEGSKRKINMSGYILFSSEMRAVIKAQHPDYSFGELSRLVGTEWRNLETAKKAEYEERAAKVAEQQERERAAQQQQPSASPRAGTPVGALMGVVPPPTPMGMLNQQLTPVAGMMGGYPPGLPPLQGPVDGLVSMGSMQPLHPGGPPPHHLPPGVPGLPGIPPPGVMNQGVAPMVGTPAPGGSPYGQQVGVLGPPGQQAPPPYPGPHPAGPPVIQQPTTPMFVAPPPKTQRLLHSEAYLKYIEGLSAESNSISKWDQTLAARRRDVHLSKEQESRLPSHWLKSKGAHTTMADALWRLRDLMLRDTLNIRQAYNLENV
Bromodomain-containing protein 2 (Homo sapiens), sequence (P25440 whole entry, looked up): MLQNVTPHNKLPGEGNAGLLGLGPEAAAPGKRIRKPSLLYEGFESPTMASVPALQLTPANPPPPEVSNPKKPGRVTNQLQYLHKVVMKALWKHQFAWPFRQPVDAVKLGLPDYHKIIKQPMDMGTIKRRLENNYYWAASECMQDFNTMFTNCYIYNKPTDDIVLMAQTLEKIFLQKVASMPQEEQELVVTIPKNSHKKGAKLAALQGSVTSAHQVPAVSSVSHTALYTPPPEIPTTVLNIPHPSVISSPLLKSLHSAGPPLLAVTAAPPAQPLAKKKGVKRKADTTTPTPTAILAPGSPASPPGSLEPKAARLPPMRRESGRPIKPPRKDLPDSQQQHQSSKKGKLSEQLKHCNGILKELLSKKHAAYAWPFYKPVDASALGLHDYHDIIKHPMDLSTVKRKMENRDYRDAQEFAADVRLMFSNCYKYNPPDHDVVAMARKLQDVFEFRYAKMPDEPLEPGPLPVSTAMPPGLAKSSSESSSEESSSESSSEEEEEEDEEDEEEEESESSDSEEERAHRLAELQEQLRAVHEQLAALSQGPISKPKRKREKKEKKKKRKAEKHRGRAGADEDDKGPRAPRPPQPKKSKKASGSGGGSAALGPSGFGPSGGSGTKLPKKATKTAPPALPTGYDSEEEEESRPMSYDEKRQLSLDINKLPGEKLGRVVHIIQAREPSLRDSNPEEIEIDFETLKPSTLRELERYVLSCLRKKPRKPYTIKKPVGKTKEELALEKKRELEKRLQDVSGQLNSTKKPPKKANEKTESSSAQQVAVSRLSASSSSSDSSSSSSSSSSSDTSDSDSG
Bromodomain-containing protein 3 (Homo sapiens), sequence (Q15059 2-726 limits assumed): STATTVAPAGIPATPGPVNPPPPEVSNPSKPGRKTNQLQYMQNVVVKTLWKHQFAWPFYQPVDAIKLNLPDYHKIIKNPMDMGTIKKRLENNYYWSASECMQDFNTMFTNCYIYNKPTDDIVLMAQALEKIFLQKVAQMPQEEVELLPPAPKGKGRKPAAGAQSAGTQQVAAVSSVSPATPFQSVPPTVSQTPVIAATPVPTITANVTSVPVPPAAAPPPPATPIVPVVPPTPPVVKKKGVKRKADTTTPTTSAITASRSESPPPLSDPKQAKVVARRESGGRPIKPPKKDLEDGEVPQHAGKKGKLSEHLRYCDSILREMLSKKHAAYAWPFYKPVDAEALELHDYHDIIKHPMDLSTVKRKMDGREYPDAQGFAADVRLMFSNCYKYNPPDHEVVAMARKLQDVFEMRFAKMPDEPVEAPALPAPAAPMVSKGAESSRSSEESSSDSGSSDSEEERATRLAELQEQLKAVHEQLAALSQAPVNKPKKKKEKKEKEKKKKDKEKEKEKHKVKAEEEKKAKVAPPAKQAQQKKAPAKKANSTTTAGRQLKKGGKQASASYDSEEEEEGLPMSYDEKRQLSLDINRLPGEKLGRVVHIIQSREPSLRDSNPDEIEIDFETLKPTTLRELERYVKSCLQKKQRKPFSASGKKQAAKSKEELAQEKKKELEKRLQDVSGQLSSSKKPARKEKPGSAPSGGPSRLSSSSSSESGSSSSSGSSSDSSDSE

CC(=O)c1cc(-c2cc(C(=O)NC3CC3)ccc2C)c2ncccn12
ΔTm [1]: 0.08 °C
ΔTm [2]: 1.02 °C
IC50 [3]: 3440 nM
ΔTm [4]: 0.25 °C
ΔTm [5]: 0.08 °C
ΔTm [6]: 0.61 °C
ΔTm [7]: 1.04 °C
ΔTm [8]: 0.79 °C
ΔTm [9]: 0.02 °C
ΔTm [10]: 9.32 °C
ΔTm [11]: 0.84 °C
ΔTm [12]: -0.04 °C
ΔTm [13]: -0.13 °C
ΔTm [14]: 2.98 °C
ΔTm [15]: 1.01 °C
ΔTm [16]: 0.7 °C
ΔTm [17]: 1.04 °C
ΔTm [18]: 0.83 °C
IC50 [19]: 2430 nM
ΔTm [20]: 0.91 °C
ΔTm [21]: 3.55 °C
ΔTm [22]: 0.25 °C
IC50 [23]: 2390 nM
ΔTm [24]: 6.98 °C
ΔTm [25]: 0.18 °C
ΔTm [26]: 1.14 °C
ΔTm [27]: 0.67 °C
ΔTm [28]: 0.95 °C
ΔTm [29]: 0.13 °C
IC50 [30]: 2230 nM
ΔTm [31]: -0.01 °C
ΔTm [32]: 1.19 °C
ΔTm [33]: 0.18 °C
ΔTm [34]: 0.29 °C
ΔTm [35]: 0.68 °C
ΔTm [36]: 0.19 °C
ΔTm [37]: 1.33 °C
ΔTm [38]: -0.06 °C
ΔTm [39]: 0.61 °C
ΔTm [40]: 1.67 °C
ΔTm [41]: 0.3 °C
ΔTm [42]: -0.26 °C
ΔTm [43]: 1.78 °C
ΔTm [44]: 1.64 °C
ΔTm [45]: 3.76 °C
ΔTm [46]: 0.41 °C
ΔTm [47]: 0.4 °C
ΔTm [48]: 0.11 °C
ΔTm [49]: 0.08 °C
ΔTm [50]: 0.38 °C
